Data on 13 compounds can be found in patent US7304050B2, “Antibacterial agents” (Pfizer Inc., priority 2003, dated 2007).

≈ marks a conversion by molar mass, not a printed value.

In one assay the test system is H. influenzae HI3542. Description: Antibacterial assay (Test A), microtitration MIC, Gram negative. Conditions: Gram Negative Bacteria, strain HI3542; for MIC: Haemophilus influenzae, read-out: Minimum Inhibitory Concentrations H. influenzae HI3542. It counts as cell-based. The protocol: (§1) The compounds of the present invention were tested against an assortment of Gram-negative and Gram-positive organisms using standard microtitration techniques (Cohen et. al., Antimicrob., 1985;28:766;Heifetz, et. al., Antimicrob., 1974;6: 124).

The subject of the next assay is M. catarrhalis BC3534. The assay is described as above. It counts as cell-based. To be noted: Gram Negative Bacteria, strain BC3534; for MIC: Moraxella catarrhalis, read-out: Minimum Inhibitory Concentrations M. catarrhalis BC3534. The protocol:
as §1

For a further assay, the system named is E. coli Tol C. The description is as above. It is filed as cell-based. To be noted: for MIC: Escherichia coli, read-out: Minimum Inhibitory Concentrations E. coli Tol C. The protocol:
as §1

A further assay deals with E. faecalis MGH-2. Description: Antibacterial assay (Test A), microtitration MIC, Gram positive. Conditions: Gram Positive Bacteria, strain MGH-2; for MIC: Enterococcus faecalis, MGH2, read-out: Minimum Inhibitory Concentrations E. faecalis MGH-2. It is filed as cell-based. The protocol:
as §1

The test system of another assay is S pyogenes C203. Described as above. It counts as cell-based. To be noted: Gram Positive Bacteria, strain C203; for MIC: read-out: Minimum Inhibitory Concentrations S pyogenes C203. The protocol: as §1
The test system of a further assay is S. aureus UC-76. The assay is described as above. It counts as cell-based. Conditions: Gram Positive Bacteria, strain UC-76; for MIC: Staphylococcus aureus, UC76, read-out: Minimum Inhibitory Concentrations S. aureus UC-76. The protocol: as §1
Assay [1] concerns E. coli transcription and translation (TnT). It counts as biochemical.

Regarding “7-{7-[5-(Acetylamino-methyl)-2-oxo-oxazolidin-3-yl]-1,3,4,5-tetrahydro-benzo[c]azepin-2-yl}-1-cyclopropyl-8-difluoromethoxy-6-fluoro-4-oxo-1,4-dihydro-[1,8]naphthyridine-3-carboxylic Acid [Example 18]”, the “Minimum Inhibitory Concentrations H. influenzae HI3542” value in the assay with H. influenzae HI3542 amounted to 0.06 µg/mL. Also, the “Minimum Inhibitory Concentrations M. catarrhalis BC3534” value with M. catarrhalis BC3534 was 2 µg/mL. Besides, the “Minimum Inhibitory Concentrations E. coli Tol C” value in the assay on E. coli Tol C (Gram Negative Bacteria, strain Tol C) was found to be 16 µg/mL. Moreover, the “Minimum Inhibitory Concentrations E. faecalis MGH-2” value in the assay on E. faecalis MGH-2 was found to be 8 µg/mL. Besides, the “Minimum Inhibitory Concentrations S pyogenes C203” value with S pyogenes C203 is 0.06 µg/mL. In the assay with S. aureus UC-76, the “Minimum Inhibitory Concentrations S. aureus UC-76” value amounted to 1 µg/mL.

In the case of `COc1c(N2CCCc3cc(N4C[C@H](CNC(C)=O)OC4=O)ccc3C2)c(F)c(C)c2c(=O)c(C(=O)O)cn(C3CC3)c12` (stereo in doubt) [Example 2, 7-{7-[5-(Acetylamino-methyl)-2-oxo-oxazolidin-3-yl]-1,3,4,5-tetrahydro-benzo[c]azepin-2-yl}-1-cyclopropyl-6-fluoro-8-methoxy-5-methyl-4-oxo-1,4-dihydro-quinoline-3-carboxylic Acid], the MIC in the assay with H. influenzae HI3542 turned out to be 0.06 mg/L (≈ 0.101 µM); with M. catarrhalis BC3534, 8 mg/L (≈ 13.5 µM); with E. coli Tol C, 16 mg/L (≈ 27 µM); in the assay with E. faecalis MGH-2, 8 mg/L (≈ 13.5 µM); in the assay on S pyogenes C203, 8 mg/L (≈ 13.5 µM); in the assay with S. aureus UC-76, 0.06 mg/L (≈ 0.101 µM). In addition, the “Inhibitory concentration in E. coli cell-free transcription/translation (TnT) assay” value in assay [1] came out at 9.6 µg/mL.

`COc1c(N2CCCc3cc(N4C[C@H](CNC(C)=O)OC4=O)ccc3C2)c(F)cc2c(=O)c(C(=O)O)cn(C3CC3)c12` (stereo in doubt) [Example 4, 7-{7-[5-(Acetylamino-methyl)-2-oxo-oxazolidin-3-yl]-1,3,4,5-tetrahydro-benzo[c]azepin-2-yl}-1-cyclopropyl-6-fluoro-8-methoxy-4-oxo-1,4-dihydro-quinoline-3-carboxylic Acid]: the MIC in the assay on H. influenzae HI3542 amounted to 0.06 mg/L (≈ 0.104 µM); with M. catarrhalis BC3534 it was 0.5 mg/L (≈ 0.864 µM); in the assay on E. coli Tol C, 2 mg/L (≈ 3.46 µM); in the assay with E. faecalis MGH-2, 1 mg/L (≈ 1.73 µM); in the assay with S pyogenes C203, 1 mg/L (≈ 1.73 µM); with S. aureus UC-76, 0.06 mg/L (≈ 0.104 µM). In assay [1], the “Inhibitory concentration in E. coli cell-free transcription/translation (TnT) assay” value came to 4.0 µg/mL.

For `CC(=O)NC[C@H]1CN(c2ccc3c(c2)CCCN(c2c(F)cc4c(=O)c(C(=O)O)cn(C5CC5)c4c2F)C3)C(=O)O1` (stereo in doubt) [Example 13, 7-{7-[5-(Acetylamino-methyl)-2-oxo-oxazolidin-3-yl]-1,3,4,5-tetrahydro-benzo[c]azepin-2-yl}-1-cyclopropyl-6,8-difluoro-4-oxo-1,4-dihydro-quinoline-3-carboxylic Acid], the MIC came out at 0.06 mg/L (≈ 0.106 µM) in the assay with H. influenzae HI3542; 1 mg/L (≈ 1.77 µM) with M. catarrhalis BC3534; 4 mg/L (≈ 7.06 µM) with E. coli Tol C; 8 mg/L (≈ 14.1 µM) in the assay with E. faecalis MGH-2; 2 mg/L (≈ 3.53 µM) with S pyogenes C203; 0.5 mg/L (≈ 0.883 µM) in the assay on S. aureus UC-76. The “Inhibitory concentration in E. coli cell-free transcription/translation (TnT) assay” value in assay [1] stood at 0.6 µg/mL.

On to `CC(=O)NC[C@H]1CN(c2ccc3c(c2)CCCN(c2nc4c(cc2F)c(=O)c(C(=O)O)cn4C2CC2)C3)C(=O)O1` (stereo in doubt) [Example 15, 7-{7-[5-(Acetylamino-methyl)-2-oxo-oxazolidin-3-yl]-1,3,4,5-tetrahydro-benzo[c]azepin-2-yl}-1-cyclopropyl-6-fluoro-4-oxo-1,4-dihydro-[1,8]naphthyridine-3-carboxylic Acid], for which the MIC in the assay with H. influenzae HI3542 amounted to 0.06 mg/L (≈ 0.109 µM); in the assay with M. catarrhalis BC3534, 4 mg/L (≈ 7.28 µM); with E. coli Tol C, 4 mg/L (≈ 7.28 µM); with E. faecalis MGH-2, 4 mg/L (≈ 7.28 µM); in the assay with S pyogenes C203, 4 mg/L (≈ 7.28 µM); in the assay with S. aureus UC-76, 2 mg/L (≈ 3.64 µM).

Turning to `CC(=O)NC[C@H]1CN(c2ccc3c(c2)CCCN(c2c(F)cc4c(=O)c(C(=O)O)cn(C5CC5)c4c2Cl)C3)C(=O)O1` [Example 1, 7-{7-[5-(Acetylamino-methyl)-2-oxo-oxazolidin-3-yl]-1,3,4,5-tetrahydro-benzo[c]azepin-2-yl}-8-chloro-1-cyclopropyl-6-fluoro-4-oxo-1,4-dihydro-quinoline-3-carboxylic Acid], the MIC was 0.06 mg/L (≈ 0.103 µM) in the assay with H. influenzae HI3542; 0.25 mg/L (≈ 0.429 µM) in the assay on M. catarrhalis BC3534; 2 mg/L (≈ 3.43 µM) with E. coli Tol C; 1 mg/L (≈ 1.72 µM) with E. faecalis MGH-2; 2 mg/L (≈ 3.43 µM) with S pyogenes C203; 0.06 mg/L (≈ 0.103 µM) with S. aureus UC-76. Further, in assay [1], the “Inhibitory concentration in E. coli cell-free transcription/translation (TnT) assay” value amounted to 9.4 µg/mL.

In the case of `CC(=O)NC[C@H]1CN(c2ccc3c(c2)CCCN(c2cc4c(c(C)c2F)c(=O)c(C(=O)O)cn4C2CC2)C3)C(=O)O1` [Example 3, 7-{7-[5-(Acetylamino-methyl)-2-oxo-oxazolidin-3-yl]-1,3,4,5-tetrahydro-benzo[c]azepin-2-yl}-1-cyclopropyl-6-fluoro-5-methyl-4-oxo-1,4-dihydro-quinoline-3-carboxylic Acid], the MIC in the assay on H. influenzae HI3542 came out at 0.06 mg/L (≈ 0.107 µM); in the assay with M. catarrhalis BC3534, 16 mg/L (≈ 28.4 µM); in the assay with E. coli Tol C, 32 mg/L (≈ 56.9 µM); with E. faecalis MGH-2 it was 32 mg/L (≈ 56.9 µM); in the assay on S pyogenes C203, 16 mg/L (≈ 28.4 µM); with S. aureus UC-76, 1 mg/L (≈ 1.78 µM).

Consider `CC(=O)NC[C@H]1CN(c2ccc3c(c2)CCCN(c2c(F)cc4c(=O)c(C(=O)O)cn5c4c2OCC5C)C3)C(=O)O1` (stereo partly drawn) [Example 5, 9-{7-[5-(Acetylamino-methyl)-2-oxo-oxazolidin-3-yl]-1,3,4,5-tetrahydro-benzo[c]azepin-2-yl}-8-fluoro-3-methyl-6-oxo-2,3-dihydro-6 H-1-oxa-3a-aza-phenalene-5-carboxylic Acid], for which the MIC in the assay with H. influenzae HI3542 is 0.06 mg/L (≈ 0.106 µM); with M. catarrhalis BC3534 it was 2 mg/L (≈ 3.54 µM); in the assay on E. coli Tol C it was 8 mg/L (≈ 14.2 µM); in the assay on E. faecalis MGH-2, 32 mg/L (≈ 56.7 µM); with S pyogenes C203 it was 8 mg/L (≈ 14.2 µM); with S. aureus UC-76, 1 mg/L (≈ 1.77 µM). Besides, in assay [1], the “Inhibitory concentration in E. coli cell-free transcription/translation (TnT) assay” value is 22.4 µg/mL.

As for `COc1c(N2CCc3ccc(N4C[C@H](CNC(C)=O)OC4=O)cc3CC2)c(F)c(C)c2c(=O)c(C(=O)O)cn(C3CC3)c12` [Example 6, 7-{7-[5-(Acetylamino-methyl)-2-oxo-oxazolidin-3-yl]-1,2,4,5-tetrahydro-benzo[d]azepin-3-yl}-1-cyclopropyl-6-fluoro-8-methoxy-5-methyl-4-oxo-1,4-dihydro-quinoline-3-carboxylic Acid], the MIC was found to be 0.06 mg/L (≈ 0.101 µM) in the assay with H. influenzae HI3542; 0.13 mg/L (≈ 0.219 µM) in the assay with M. catarrhalis BC3534; 2 mg/L (≈ 3.37 µM) with E. coli Tol C; 0.25 mg/L (≈ 0.422 µM) with E. faecalis MGH-2; 0.25 mg/L (≈ 0.422 µM) in the assay with S pyogenes C203; 0.06 mg/L (≈ 0.101 µM) in the assay with S. aureus UC-76. For the same compound, the “Inhibitory concentration in E. coli cell-free transcription/translation (TnT) assay” value in assay [1] was determined as 9.6 µg/mL.

In the case of `COc1c(N2CCc3ccc(N4C[C@H](CNC(C)=O)OC4=O)cc3CC2)c(F)cc2c(=O)c(C(=O)O)cn(C3CC3)c12` [Example 7, 7-{7-[5-(Acetylamino-methyl)-2-oxo-oxazolidin-3-yl]-1,2,4,5-tetrahydro-benzo[d]azepin-3-yl}-1-cyclopropyl-6-fluoro-8-methoxy-4-oxo-1,4-dihydro-quinoline-3-carboxylic Acid], the MIC in the assay with H. influenzae HI3542 was determined as 0.06 mg/L (≈ 0.104 µM); with M. catarrhalis BC3534, 0.25 mg/L (≈ 0.432 µM); with E. coli Tol C, 2 mg/L (≈ 3.46 µM); in the assay with E. faecalis MGH-2, 0.5 mg/L (≈ 0.864 µM); in the assay on S pyogenes C203, 1 mg/L (≈ 1.73 µM); in the assay on S. aureus UC-76, 0.06 mg/L (≈ 0.104 µM). For the same compound, the “Inhibitory concentration in E. coli cell-free transcription/translation (TnT) assay” value in assay [1] was 11.8 µg/mL.

`CC(=O)NC[C@H]1CN(c2ccc3c(c2)CCN(c2nc4c(cc2F)c(=O)c(C(=O)O)cn4-c2ccc(F)cc2F)CC3)C(=O)O1` [Example 8, 7-{7-[5-(Acetylamino-methyl)-2-oxo-oxazolidin-3-yl]-1,2,4,5-tetrahydro-benzo[d]azepin-3-yl}-1-(2,4-difluoro-phenyl)-6-fluoro-4-oxo-1,4-dihydro-[1,8]naphthyridine-3-carboxylic Acid]: the MIC came to 0.06 mg/L (≈ 0.0965 µM) in the assay with H. influenzae HI3542; 2 mg/L (≈ 3.22 µM) in the assay on M. catarrhalis BC3534; 2 mg/L (≈ 3.22 µM) in the assay with E. coli Tol C; 16 mg/L (≈ 25.7 µM) with E. faecalis MGH-2; 8 mg/L (≈ 12.9 µM) in the assay on S pyogenes C203; 0.5 mg/L (≈ 0.804 µM) in the assay on S. aureus UC-76. The “Inhibitory concentration in E. coli cell-free transcription/translation (TnT) assay” value in assay [1] worked out at 23.0 µg/mL.

In the case of `CC(=O)NC[C@H]1CN(c2ccc3c(c2)CCN(c2cc4c(cc2F)c(=O)c(C(=O)O)cn4C2CC2)CC3)C(=O)O1` [Example 9, 7-{7-[5-(Acetylamino-methyl)-2-oxo-oxazolidin-3-yl]-1,2,4,5-tetrahydro-benzo[d]azepin-3-yl}-1-cyclopropyl-6-fluoro-4-oxo-1,4-dihydro-quinoline-3-carboxylic Acid], the MIC in the assay with H. influenzae HI3542 is 0.06 mg/L (≈ 0.109 µM); in the assay with M. catarrhalis BC3534 it was 0.5 mg/L (≈ 0.911 µM); with E. coli Tol C it was 4 mg/L (≈ 7.29 µM); in the assay on E. faecalis MGH-2, 8 mg/L (≈ 14.6 µM); in the assay with S pyogenes C203, 4 mg/L (≈ 7.29 µM); with S. aureus UC-76, 0.13 mg/L (≈ 0.237 µM). The “Inhibitory concentration in E. coli cell-free transcription/translation (TnT) assay” value in assay [1] turned out to be 13.0 µg/mL.

Turning to `CCn1cc(C(=O)O)c(=O)c2cc(F)c(N3CCCc4cc(N5C[C@H](CNC(C)=O)OC5=O)ccc4C3)nc21` [Example 17, 7-{7-[5-(Acetylamino-methyl)-2-oxo-oxazolidin-3-yl]-1,3,4,5-tetrahydro-benzo[c]azepin-2-yl}-1-ethyl-6-fluoro-4-oxo-1,4-dihydro-[1,8]naphthyridine-3-carboxylic Acid], the MIC in the assay on H. influenzae HI3542 was 0.5 mg/L (≈ 0.93 µM); in the assay on M. catarrhalis BC3534, 64 mg/L (≈ 119 µM); in the assay on E. coli Tol C, 64 mg/L (≈ 119 µM); in the assay on E. faecalis MGH-2 it was 64 mg/L (≈ 119 µM); with S pyogenes C203 it was 64 mg/L (≈ 119 µM); in the assay with S. aureus UC-76 it was 64 mg/L (≈ 119 µM).
